# Measured values from patent US20260001914A1, “MACROCYCLIC PEPTIDES TARGETING KRAS” (Merck Sharp & Dohme LLC, priority 2022, published 2026).
# *1 amine or outer side, *2 acyl side, *3 side chain or, on linkers, in order; H or OH if unused. Where a SMILES comes first, the peptide text is derived from it. Bridges are numbered along the chain shown (N, C = ends). [ ]: non-standard residue; d: D form. The star is where a group is joined. Phe(4-guanidino) = N=C(N)Nc1ccc(C[C@H](N)C(=O)O)cc1; X82 = CS(=O)(=O)c1ncc(C[C@H](N[*:1])C(=O)[*:2])cn1; X49 = O=C(O)Cc1cccc(C[C@H](N[*:1])C(=O)[*:2])c1; Ala(pyrimidin-5-yl) = N[C@@H](Cc1cncnc1)C(=O)O; X29 = CC(=O)N(C)CCC[C@@H](C(=O)[*:2])N(C)[*:1]; X43 = CN([C@@H](Cc1cnccc1F)C(=O)[*:2])[*:1]; X33 = O=C([C@H](Cc1ccnc(F)c1F)N[*:1])[*:2]; X80 = Nc1nccn1CCC[C@H](N[*:1])C(=O)[*:2]; Ethyl(2-pyrrolidin-1-yl) = C1CCN(CC*)C1; X30 = O=C([C@H](Cc1ncccc1F)N[*:1])[*:2]; NMeAha = CN[C@@H](CCN=[N+]=[N-])C(=O)O; 1Nal = N[C@@H](Cc1cccc2ccccc12)C(=O)O; NHCH2CH2SCH2CO = O=C(CSCCN[*:1])[*:2]; Phe(2-F) = N[C@@H](Cc1ccccc1F)C(=O)O; NMe3Pal = CN[C@@H](Cc1cccnc1)C(=O)O; X1 = O=C(C12CC(CN[*:1])(C1)C2)[*:2]; NMeR = CN[C@@H](CCCNC(=N)N)C(=O)O; Ala(cPr) = N[C@@H](CC1CC1)C(=O)O; NMeF = CN[C@@H](Cc1ccccc1)C(=O)O; PhLac = O=C(O)[C@@H](O)Cc1ccccc1; 3Pal = N[C@@H](Cc1cccnc1)C(=O)O; d3Pal = N[C@H](Cc1cccnc1)C(=O)O; Ahp(2) = CCCCC[C@H](N)C(=O)O; Cba = N[C@@H](CC1CCC1)C(=O)O; hLeu = CC(C)CC[C@H](N)C(=O)O; hSer = N[C@@H](CCO)C(=O)O; αMeC = C[C@](N)(CS)C(=O)O; NMeA = CN[C@@H](C)C(=O)O; Nle = CCCC[C@H](N)C(=O)O; Nva = CCC[C@H](N)C(=O)O; CHF2 = FC(F)*
# Target: KRAS-G12D protein (Homo sapiens, UniProt P01116, G12D)
# Experiment: SOS-mediated nucleotide exchange assay (BODIPY-GDP / Tb-streptavidin TR-FRET)
# Type: biochemical
# Settings: not given
# Sequence of KRAS-G12D protein (P01116 1-188 isoform P01116-2 G12D): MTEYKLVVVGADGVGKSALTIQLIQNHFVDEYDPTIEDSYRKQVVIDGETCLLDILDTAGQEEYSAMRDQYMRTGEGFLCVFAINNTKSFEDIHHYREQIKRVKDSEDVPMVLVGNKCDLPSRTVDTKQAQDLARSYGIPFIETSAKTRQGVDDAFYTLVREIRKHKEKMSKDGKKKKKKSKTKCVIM
row,Compound,EC50 [nM]
1,"CCCCC[C@@H]1NC(=O)[C@H](Cc2ccc(OC)cc2)NC(=O)[C@H](CC2CCC2)NC(=O)[C@H](Cc2ccc(OCCN3CCCC3)cc2)NC(=O)[C@H](CCCNC(=N)N)NC(=O)[C@H](Cc2ccccc2)NC(=O)CSC[C@@](C)(C(N)=O)NC(=O)[C@H](Cc2ccccc2)N(C)C1=O [compound 383, cyclo(F-R-TyrOEtPyr-cBuA-TyrOMe-Ahp-NMeF-aMeCl-ClAc)] ({CH2CO}-FRY(Ethyl(2-pyrrolidin-1-yl))[Cba]Y(Me)[Ahp(2)][NMeF][αMeC]-NH2; thioether N-8)",9.79
2,"CCCC[C@@H]1NC(=O)[C@H](Cc2ccccc2F)NC(=O)[C@H](CCC(C)C)NC(=O)[C@H](Cc2cncnc2)NC(=O)[C@H](C)N(C)C(=O)[C@H](Cc2ccccc2)OC(=O)C23CC(CNC(=O)[C@H](Cc4cccnc4)N(C)C1=O)(C2)C3 [compound 127, cyclo(FLac-NMeA-PyrimAla-hL-Phe2F-Nle-NMe3Pal-amBCP)] (cyclo([NMe3Pal][X1][PhLac][NMeA][Ala(pyrimidin-5-yl)][hLeu][Phe(2-F)][Nle]))",228
3,"CCCC[C@@H]1NC(=O)[C@H](Cc2cccnc2)NC(=O)[C@H](CCN=[N+]=[N-])N(C)C(=O)[C@H](Cc2ccccc2)NC(=O)C23CC(CNC(=O)[C@H](Cc4cccnc4)N(C)C(=O)[C@H](CCCC)NC(=O)[C@H](Cc4ccccc4F)NC1=O)(C2)C3 [compound 245, cyclo(F-NMeDabN3-3Pal-Nle-Phe2F-Nle-NMe3Pal-amBCP)] (cyclo(F[NMeAha][3Pal][Nle][Phe(2-F)][Nle][NMe3Pal][X1]))",267
4,"CCCC[C@@H]1NC(=O)[C@H](CCCCN)NC(=O)[C@H](CCCNC(=N)N)NC(=O)[C@H](Cc2cccc3ccccc23)NC(=O)CSCCNC(=O)[C@H](Cc2ccccc2)N(C)C(=O)[C@H](CCCC)NC(=O)[C@H](Cc2cccc(CC(=O)O)c2)NC1=O [compound 196, cyclo(INal-R-K-Nle-Phe3AcOH-Nle-NMeF-Cysteamine-ClAc)] (cyclo([1Nal]RK[Nle][X49][Nle][NMeF][NHCH2CH2SCH2CO]))",2650
5,"CCCC[C@@H]1NC(=O)[C@H](Cc2cncnc2)NC(=O)[C@H](C)N(C)C(=O)[C@H](Cc2ccccc2)OC(=O)C23CC(CNC(=O)[C@H](Cc4ccccc4)N(C)C(=O)[C@H](CCCC)NC(=O)[C@H](Cc4ncccc4F)NC1=O)(C2)C3 [compound 229, cyclo(FLac-NMeA-PyrimAla-Nle-2Pal6F-Nle-NMeF-amBCP)] (cyclo([NMeA][Ala(pyrimidin-5-yl)][Nle][X30][Nle][NMeF][X1][PhLac]))",559
6,"CCCC[C@@H]1NC(=O)[C@H](CCCCN)NC(=O)[C@H](CCCNC(=N)N)NC(=O)[C@H](Cc2cccc3ccccc23)NC(=O)CSCCNC(=O)[C@H](Cc2ccccc2)N(C)C(=O)[C@H](CCCC)NC(=O)[C@H](Cc2ccc(O)cc2)NC1=O [compound 71, cyclo(INal-R-K-Nle-Y-Nle-NMeF-Cysteamine-ClAc)] (cyclo([1Nal]RK[Nle]Y[Nle][NMeF][NHCH2CH2SCH2CO]))",526
7,"CCCC[C@@H]1NC(=O)[C@H](Cc2ccccc2F)NC(=O)C(CC2CC(F)(F)C2)NC(=O)[C@H](Cc2cncnc2)NC(=O)[C@H](C)N(C)C(=O)[C@H](Cc2ccccc2)OC(=O)C23CC(CNC(=O)[C@H](Cc4cccnc4)N(C)C1=O)(C2)C3 (single isomer, unassigned) [compound 122, cyclo(FLac-NMeA-PyrimAla-rF2Cba-Phe2F-Nle-NMe3Pal-amBCP)]",236
8,"CCCC[C@@H]1NC(=O)[C@H](Cc2cnc(S(C)(=O)=O)nc2)NC(=O)[C@H](C)N(C)C(=O)[C@H](Cc2ccccc2)OC(=O)C23CC(CNC(=O)[C@H](Cc4ccccc4)N(C)C(=O)[C@H](CCCC)NC(=O)[C@H](Cc4ccccc4F)NC1=O)(C2)C3 [compound 313, cyclo(FLac-NMeA-AlaPyrim4SO2Me-Nle-Phe2F-Nle-NMeF-amBCP)] (cyclo([NMeA][X82][Nle][Phe(2-F)][Nle][NMeF][X1][PhLac]))",5.22
9,"CCCCC[C@@H]1NC(=O)[C@H](Cc2ccc(OC)cc2)NC(=O)[C@H](CC2CCC2)NC(=O)[C@H](Cc2cnn(C)c2)NC(=O)[C@H](CCCNC(=N)N)NC(=O)[C@H](Cc2ccccc2)NC(=O)CSC[C@@](C)(C(N)=O)NC(=O)[C@H](Cc2ccccc2)N(C)C1=O [compound 372, cyclo(F-R-Ala4PyzlMe-cBuA-TyrOMe-Ahp-NMeF-aMeCl-ClAc)]",10.2
10,"CC(C)CC[C@@H]1NC(=O)[C@H](Cc2ccccc2F)NC(=O)[C@H](CC2CC2)NC(=O)[C@H](Cc2cncnc2)NC(=O)[C@H](C)N(C)C(=O)[C@H](Cc2ccccc2)OC(=O)C23CC(CNC(=O)[C@H](Cc4cnccc4F)N(C)C1=O)(C2)C3 [compound 338, cyclo(FLac-NMeA-PyrimAla-cPrA-Phe2F-hL-NMe3Pal6F-amBCP)] (cyclo([Ala(cPr)][Phe(2-F)][hLeu][X43][X1][PhLac][NMeA][Ala(pyrimidin-5-yl)]))",2
11,"CC(C)CC[C@@H]1NC(=O)[C@H](Cc2ccccc2F)NC(=O)[C@H](CC2CC2)NC(=O)[C@H](Cc2cccnc2)NC(=O)[C@H](C)N(C)C(=O)[C@H](Cc2ccccc2)OC(=O)C23CC(CNC(=O)[C@H](Cc4cccnc4F)N(C)C1=O)(C2)C3 (single isomer, unassigned) [compound 297, cyclo(FLac-NMeA-3Pal-cPrA-Phe2F-hL-NMe3Pal2F-amBCP)]",4
12,"CC(C)CC[C@@H]1NC(=O)[C@H](Cc2ccnc(F)c2F)NC(=O)[C@H](CC2CC2)NC(=O)[C@H](Cc2cncnc2)NC(=O)[C@H](C)N(C)C(=O)[C@H](Cc2ccccc2)OC(=O)C23CC(CNC(=O)[C@H](Cc4ccccc4)N(C)C1=O)(C2)C3 [compound 293, cyclo(FLac-NMeA-PyrimAla-cPrA-4Pal23F2-hL-NMeF-amBCP)] (cyclo([Ala(cPr)][X33][hLeu][NMeF][X1][PhLac][NMeA][Ala(pyrimidin-5-yl)]))",259
13,"CCCC[C@@H]1NC(=O)[C@H](Cc2ccc(OC(F)F)cc2)NC(=O)[C@H](C)N(C)C(=O)[C@H](Cc2ccccc2)OC(=O)C23CC(CNC(=O)[C@H](Cc4ccccc4)N(C)C(=O)[C@H](CCCC)NC(=O)[C@H](Cc4ccccc4F)NC1=O)(C2)C3 [compound 312, cyclo(FLac-NMeA-TyrOCF2-Nle-Phe2F-Nle-NMeF-amBCP)] (cyclo([NMeA]Y(CHF2)[Nle][Phe(2-F)][Nle][NMeF][X1][PhLac]))",966
14,"CCCC[C@@H]1NC(=O)[C@H](Cc2ccc(O)cc2)NC(=O)[C@H](CC(C)C)NC(=O)[C@H](Cc2ccc(NC(=N)N)cc2)NC(=O)[C@H](CCCNC(=N)N)NC(=O)[C@H](Cc2ccccc2)NC(=O)CSC[C@@H](C(N)=O)NC(=O)[C@H](Cc2ccccc2)N(C)C1=O [compound 45, cyclo(F-R-Phe4Gn-L-Y-Nle-NMeF-Cl-ClAc)] ({CH2CO}-FR[Phe(4-guanidino)]LY[Nle][NMeF]C-NH2; thioether N-8)",12.6
15,"CCCC[C@@H]1NC(=O)[C@H](CCCCN)NC(=O)[C@H](CCCNC(=N)N)NC(=O)[C@H](Cc2cccc3ccccc23)NC(=O)CSC[C@H](C(N)=O)NC(=O)[C@H](Cc2ccccc2)N(C)C(=O)[C@H](CCCC)NC(=O)[C@H](Cc2ccc(O)cc2)NC1=O [compound 19, cyclo(INal-R-K-Nle-Y-Nle-NMeF-dCl-ClAc)]",1280
16,"CCCC[C@@H]1NC(=O)[C@H](Cc2cccnc2)NC(=O)[C@H](CCCN(C)C(C)=O)N(C)C(=O)[C@H](Cc2ccccc2)OC(=O)C23CC(CNC(=O)[C@H](Cc4cccnc4)N(C)C(=O)[C@H](CCCC)NC(=O)[C@H](Cc4ccccc4F)NC1=O)(C2)C3 [compound 405, cyclo(FLac-NMeOrnAc-3Pal-Nle-Phe2F-Nle-NMe3Pal-amBCP)] (cyclo([3Pal][Nle][Phe(2-F)][Nle][NMe3Pal][X1][PhLac][X29]))",50
17,"CCCC[C@@H]1NC(=O)[C@H](Cc2ccccc2F)NC(=O)[C@H](CC2CCC2)NC(=O)[C@H](CCO)NC(=O)[C@H](CCCNC(=N)N)NC(=O)[C@H](Cc2ccccc2)NC(=O)CSC[C@@](C)(C(N)=O)NC(=O)[C@H](Cc2ccccc2)N(C)C1=O [compound 50, cyclo(F-R-hS-cBuA-Phe2F-Nle-NMeF-aMeCl-ClAc)] ({CH2CO}-FR[hSer][Cba][Phe(2-F)][Nle][NMeF][αMeC]-NH2; thioether N-8)",503
18,"CCCC[C@@H]1NC(=O)[C@H](Cc2ccc(O)cc2)NC(=O)[C@H](CC(C)C)NC(=O)[C@H](Cc2ccc(OC)cc2)NC(=O)[C@H](CCCNC(=N)N)NC(=O)[C@H](Cc2ccccc2)NC(=O)CSCCNC(=O)[C@H](Cc2ccccc2)N(C)C1=O [compound 72, cyclo(F-R-TyrOMe-L-Y-Nle-NMeF-Cysteamine-ClAc)]",2250
19,"CCCC[C@@H]1NC(=O)[C@H](Cc2ccccc2F)NC(=O)[C@H](CC2CCC2)NC(=O)[C@@H](Cc2cccnc2)NC(=O)[C@H](CCCn2ccnc2N)NC(=O)[C@H](Cc2ccccc2)NC(=O)C23CC(CNC(=O)[C@H](Cc4cccnc4)N(C)C1=O)(C2)C3 [compound 110, cyclo(F-NH2IMNva-d3Pal-cBuA-Phe2F-Nle-NMe3Pal-amBCP)] (cyclo(F[X80][d3Pal][Cba][Phe(2-F)][Nle][NMe3Pal][X1]))",1.14
20,"CCC[C@@H]1NC(=O)[C@H](Cc2ccc(O)cc2)NC(=O)[C@H](CC(C)C)NC(=O)[C@H](Cc2ccc(O)cc2)NC(=O)[C@H](CCCNC(=N)N)N(C)C(=O)[C@H](Cc2ccccc2)NC(=O)CSC[C@H](C(N)=O)NC(=O)[C@H](Cc2ccccc2)N(C)C1=O [compound 176, cyclo(F-NMeR-Y-L-Y-Nva-NMeF-dCl-ClAc)] ({CH2CO}-F[NMeR]YLY[Nva][NMeF][dC]-NH2; thioether N-8)",2420
21,"CCCC[C@@H]1NC(=O)[C@H](Cc2cccnc2)NC(=O)[C@H](C)N(C)C(=O)[C@H](Cc2ccccc2)OC(=O)C23CC(CNC(=O)[C@H](Cc4cccnc4)N(C)C(=O)[C@H](CCC(C)C)NC(=O)[C@H](Cc4ccccc4F)NC1=O)(C2)C3 [compound 124, cyclo(FLac-NMeA-3Pal-Nle-Phe2F-hL-NMe3Pal-amBCP)] (cyclo([3Pal][Nle][Phe(2-F)][hLeu][NMe3Pal][X1][PhLac][NMeA]))",2.17

# Same assay, conditions: listed as 190
row,Compound,EC50 [nM]
1,"COc1ccc(C[C@@H]2NC(=O)[C@H](CC3CCC3)NC(=O)[C@H](Cc3cccnc3)NC(=O)[C@H](CCCNC(=N)N)NC(=O)[C@H](Cc3ccccc3)NC(=O)CSC[C@](C)(C(N)=O)NC(=O)[C@@H]3CCCCCCC[C@H](NC2=O)C(=O)N3C)cc1 (single isomer, unassigned) [SEQ ID NO: 190]",650
